Where a name gives a salt, the structure may show the parent alone.
Tests used:
AtsK = target: T1, AtsK (Pseudomonas putida, UniProt Q9WWU5); assay: NADH/LADH coupled assay, […] nm; format: biochemical; conditions: alpha-ketoglutarate, Fe(II), ascorbate; 1 and 10 mM substrate
T1 construct: not described in main text (supplement File S1)

Rv3406 = Rv3406 (Mycobacterium tuberculosis, UniProt P9WKZ1); assay: NADH/LADH coupled assay, […] nm; format: biochemical; conditions: co-substrate with 2-EHS, Fe(II), ascorbate, pH 7.5, 25 C

T1 sequence (Q9WWU5 whole entry): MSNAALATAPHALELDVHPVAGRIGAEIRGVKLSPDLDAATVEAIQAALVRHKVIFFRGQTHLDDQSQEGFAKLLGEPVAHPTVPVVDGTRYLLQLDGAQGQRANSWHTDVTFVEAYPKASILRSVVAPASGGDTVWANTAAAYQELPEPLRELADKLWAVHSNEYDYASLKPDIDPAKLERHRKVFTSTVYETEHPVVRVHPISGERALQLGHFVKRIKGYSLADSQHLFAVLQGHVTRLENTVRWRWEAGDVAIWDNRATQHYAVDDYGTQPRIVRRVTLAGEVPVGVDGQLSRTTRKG

## CCCCC(CC)COS(=O)(=O)O (centres unmarked) [2-ethylhexyl sulfate]
AtsK
  NADH/LADH coupled assay, 340 nm: we also tested AtsK and found 2-EHS was its preferred substrate as well

## O=C(O)CCC(=O)C(=O)O [α-ketoglutarate]
Rv3406
  NADH/LADH coupled assay, 340 nm: Rv3406’s activity on 2-EHS is dependent on the cosubstrate αKG

Reference: publication PMC3675115, “Mycobacterium tuberculosis Rv3406 Is a Type II Alkyl Sulfatase Capable of Sulfate Scavenging” (PLoS ONE, 2013)
